Test results taken from PubChem BioAssay (NCI).
“And” between values parts separate entries of the source, which are not always exact repeats. Identical values can stand only once.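 Cells were grown in 96-well plates and exposed to each compound for 48 hours at five concentrations; endpoints were interpolated linearly between bracketing concentrations, or set to the highest concentration if not reached. The concentration for 50% growth inhibition is given as GI50. TGI denotes the concentration required for complete inhibition of growth.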

What was measured:
Assay in all cases: DTP human tumour cell line panel, 48 h
[1] = system: SK-MEL-28 melanoma
[2] = system: SW-620 colon
[3] = system: HL-60(TB) leukemia
[4] = system: SK-OV-3 ovarian
[5] = system: A498 renal
[6] = system: COLO 205 colon
[7] = system: SK-MEL-5 melanoma
[8] = system: UACC-62 melanoma
[9] = system: HOP-62 NSCLC
[10] = system: A549 NSCLC
[11] = system: MCF7 breast
[12] = system: SF-268 CNS
[13] = system: SK-MEL-2 melanoma
[14] = system: HCT-116 colon
[15] = system: CCRF-CEM leukemia
[16] = system: RPMI-8226 leukemia
[17] = system: HT29 colon
[18] = system: HCC-2998 colon
[19] = system: NCI-H522 lung
[20] = system: SN12C renal
[21] = system: NCI-H226 lung
[22] = system: CAKI-1 renal
[23] = system: SNB-19 CNS
[24] = system: SR leukemia
[25] = system: OVCAR-5 ovarian
[26] = system: K-562 leukemia
[27] = system: U251 CNS
[28] = system: KM12 colon
[29] = system: OVCAR-4 ovarian
[30] = system: PC-3 prostate
[31] = system: SNB-75 CNS
[32] = system: OVCAR-3 ovarian
[33] = system: SF-295 CNS
[34] = system: HCT-15 colon
[35] = system: NCI-H23 lung
[36] = system: MOLT-4 leukemia
[37] = system: OVCAR-8 ovarian
[38] = system: NCI/ADR-RES ovarian
[39] = system: EKVX NSCLC
[40] = system: M14 melanoma
[41] = system: UACC-257 melanoma
[42] = system: MDA-MB-435
[43] = system: DU-145 prostate
[44] = system: HS 578T breast
[45] = system: NCI-H460 lung
[46] = system: LOX IMVI melanoma

## CCCC(=O)Nc1cc(/C=C/C(=O)N2C[C@H]3C[C@@]34C2=CC(=O)c2[nH]cc(C)c24)n(C)c1
[1]
  TGI: 6.78 nM
[2]
  TGI: 25000 nM and 7750 nM
[3]
  TGI: < 2.5 nM
[4]
  TGI: 352 nM and 861 nM
[5]
  TGI: < 2.5 nM
[6]
  TGI: 281 nM
[7]
  TGI: 1040 nM
[8]
  TGI: < 2.5 nM
[9]
  TGI: 25000 nM
[10]
  TGI: 25000 nM
[11]
  TGI: 25000 nM
[12]
  TGI: > 100000 nM
[13]
  TGI: 25000 nM
[14]
  TGI: 11000 nM
[15]
  TGI: < 2.5 nM
[16]
  TGI: 164 nM
[17]
  TGI: 15400 nM
[18]
  TGI: < 2.5 nM
[19]
  TGI: < 2.5 nM
[20]
  TGI: 257 nM
[21]
  TGI: 250 nM
[22]
  TGI: < 2.5 nM
[23]
  TGI: 2860 nM and 13200 nM
[24]
  TGI: < 2.5 nM
[25]
  TGI: 25000 nM
[26]
  TGI: 25000 nM
[27]
  TGI: 1110 nM
[28]
  TGI: 267 nM and 1120 nM
[29]
  TGI: 11.1 nM
[30]
  TGI: 25000 nM
[31]
  TGI: 5.27 nM
[32]
  TGI: 9.47 nM
[33]
  TGI: 388 nM
[34]
  TGI: 25000 nM
[35]
  TGI: 5.58 nM
[36]
  TGI: < 2.5 nM
[37]
  TGI: < 2.5 nM
[38]
  TGI: 110 nM and 50.7 nM
[39]
  TGI: 1150 nM
[40]
  TGI: 25000 nM

## Brc1ccc2c(c1)c(-c1nc(-c3c[nH]c4ncccc34)cs1)cn2CCCN1CCCCC1
[2]
  GI50: 1750 nM
  TGI: 3310 nM
[3]
  GI50: 1900 nM
  TGI: 4570 nM
[5]
  GI50: 2320 nM
  TGI: 9160 nM
[7]
  GI50: 1740 nM
  TGI: 3140 nM
[41]
  GI50: 1900 nM
  TGI: 3500 nM
[11]
  GI50: 1620 nM
  TGI: 3110 nM
[42]
  GI50: 1860 nM
  TGI: 3490 nM
[18]
  GI50: 1820 nM
  TGI: 3410 nM
[43]
  GI50: 1770 nM
  TGI: 3180 nM
[21]
  GI50: 1890 nM
  TGI: 5010 nM
[44]
  GI50: 2130 nM
  TGI: 5550 nM
[45]
  GI50: 1780 nM
  TGI: 3370 nM
[28]
  GI50: 1820 nM
  TGI: 3480 nM
[29]
  GI50: 2240 nM
  TGI: 4880 nM
[46]
  GI50: 1680 nM
  TGI: 3080 nM
[31]
  GI50: 1850 nM
  TGI: 4590 nM
[32]
  GI50: 1890 nM
  TGI: 3430 nM
[34]
  GI50: 1660 nM
  TGI: 3080 nM
[35]
  GI50: 1750 nM
  TGI: 3370 nM
[40]
  GI50: 1790 nM
  TGI: 3390 nM
